Laboratory results taken from US10172899B2, “Composition for preventing, treating and improving of voiding dysfunction comprising extract from Piper longum L” (priority 2014, dated 2019).

How the values were obtained:
[1] = test system: CYP-induced cystitis rat model; assay: Cystometry in CYP-induced cystitis model, ethanol and water extracts (Example 6.3); assay type: in vivo; settings: extracts 200 mg/kg, oxybutynin 0.3 mg/kg
Procedure: (§1) To measure bladder pressure, bladder capacity and voiding volume, which are parameters for identifying improvement of voiding dysfunction, cyclophosphamide (150 mg/kg) was once intraperitoneally administered to rats excluding a normal control group to induce irritable bladder symptoms at 3 days before cystometry. From 3 Days before cystometry, a solvent (DMSO/10% Cremophor EL=1:9, vol/vol) had been administrated to a solvent control group, and 95% by volume of aqueous ethanol solution extract of Piper Longum L. fruits prepared in Preparation Example 4.1 had been administrated to an experimental group at 200 mg/kg. In addition, oxybutynin as a positive control group was injected via a caudal vein at 0.3 mg/kg on the day of experiment.
(§2) For cystometry and injection of a physiological saline solution, instruments for cystometry and insertion of a bladder vessel were the same as in the above Example 5.2, and voiding volume and residual volume were recorded by sampling urine in a 1.5 ml tube and measuring its weight.
The basal pressure (BP), threshold pressure (TP), micturition pressure (MP) and micturition interval (MI) which are defined as in the above Example 5.2. […] A bladder capacity (BC) was calculated by combining the measured residual volume (RV) and voiding volume (VV) of the rat. […]

[2] = test system: CYP-induced cystitis rat model; assay: Cystometry in CYP-induced cystitis model after dosing for 3 days (Example 6.2); assay type: in vivo; settings: extract 200 mg/kg from 3 days before cystometry; oxybutynin 0.3 mg/kg via caudal vein on the day
Procedure: 65 of specific pathogen-free (SPF) SD female rats were purchased from ORIENT (Korea) and used. Day and night were controlled by a 12 hour cycle, and they were allowed to access to food and water freely.
as §1, §2
The basal pressure (BP), threshold pressure (TP), micturition pressure (MP) and micturition interval (MI) which are defined as in the above Example 5.2. In addition, a voiding volume being an parameter of volume parameter was defined by sampling urine in a 1.5 ml tube on the last voiding during urodynamic measurements and measuring its weight. After completing micturition, a residual volume was defined by placing the catheter inserted into bladder at the lower portion than the rat and measuring the weight of the obtained physiological saline. A bladder capacity (BC) was calculated by combining the measured residual volume (RV) and voiding volume (VV) of the rat.
The voiding cycles were measured for 120 minutes, and the average values of each parameter were calculated by selecting the most representative 5 continuous cycles among the measured voiding cycles.

muscarinic M2 receptor = target: T1, muscarinic M2 receptor (Homo sapiens, UniProt P08172); assay: Relief of acetylcholine inhibition of forskolin-induced cAMP in human bladder smooth muscle cells (ELISA); assay type: cell-based; settings: 10 μM, with Forskolin 10 μM + ACh 10 μM
T1 construct: The human bladder smooth muscle Cells (hBdSMC) where the muscarinic M2 receptor had been expressed were purchased from Lonza; host or cells: human bladder smooth muscle cells (hBdSMC)
T1 sequence (P08172 1-466): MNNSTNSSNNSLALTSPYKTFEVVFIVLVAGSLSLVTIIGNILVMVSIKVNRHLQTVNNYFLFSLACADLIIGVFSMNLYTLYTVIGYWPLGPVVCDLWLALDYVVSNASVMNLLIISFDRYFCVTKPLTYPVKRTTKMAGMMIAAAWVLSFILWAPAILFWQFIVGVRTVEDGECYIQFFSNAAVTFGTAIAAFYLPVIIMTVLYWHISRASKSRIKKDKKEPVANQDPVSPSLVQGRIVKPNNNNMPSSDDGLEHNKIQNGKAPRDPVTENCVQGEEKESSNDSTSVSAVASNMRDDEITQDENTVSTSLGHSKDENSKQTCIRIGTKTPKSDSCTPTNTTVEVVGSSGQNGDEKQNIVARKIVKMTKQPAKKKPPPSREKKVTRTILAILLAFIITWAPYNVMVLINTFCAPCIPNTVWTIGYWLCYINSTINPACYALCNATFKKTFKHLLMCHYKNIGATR
Source text: It is known that when muscarinic M2 receptor, which is one of GPCR (G protein-coupled receptors), is coupled with acetylcholine being an agonist it inhibits activity of adenylyl cyclase enzyme to decrease a concentration of cAMP in cells, in which if the amount of cAMP increases, detrusor is relaxed, or otherwise if the amount of cAMP decreases, detrusor is contracted. Therefore, in confirming improvement of voiding dysfunction, it is important to identify an effect of being capable of increasing or decreasing the amount of cAMP. Accordingly, it was identified whether or not the extract of Piper Longum L. has activity of inhibiting muscarinic receptor that may inhibit decrease of a concentration of cAMP by acetylcholine, by pre-treating 95% by volume of aqueous solution of ethanol extract of Piper Longum L., treating it with acetylcholine which may serve as an activator of muscarinic M2 receptor to induce decrease of a concentration of cAMP, and treating it with Forskolin that may raise a concentration of cAMP in cells. More specifically, the procedure is as follows.
The human bladder smooth muscle Cells (hBdSMC) where the muscarinic M2 receptor had been expressed were purchased from Lonza (cambrex), and used. […] The amount of cAMP in cells was evaluated by measuring absorbance (408 nm) with an ELISA kit from the supernatant taken after centrifuging cells dissolved in 0.1M HCl.

[3] = test system: spontaneously hypertensive rat (SHR); assay: Urodynamic study in SHR under un-anesthesia; assay type: in vivo
Procedure: 12˜18 Week-old male SHRs were purchased from Charles River (Japan) and used. Day and night were controlled by a 12 hour cycle, and they were allowed to access to food and water freely. All the rats had to urinate at 3-5 cycles under a condition with no administration. The micturition parameters of rats under a condition with no administration were considered as control groups for urodynamic parameters, while the rats, to which the water extract of Piper Longum L. fruits prepared in Preparation Example 4.2 was directly administered into gastrointestinal tracts at 300 mg/kg via catheters coupled to stomachs, became experimental groups. As a positive control group, rats administered with tolterodine at 1 mg/kg were used. The Piper Longum L. water extract and tolterodine-dosing groups were each set by 6 rats.
To measure bladder pressure, bladder capacity, voiding volume and micturition interval, which are parameters for identifying improvement of voiding dysfunction, insertion of a bladder tube and a vessel for measuring an abdominal pressure was carried out in SHR models. For cystometry and injection of a physiological saline solution, a rat was incised in center of its lower abdomen 3 days before the day of measuring urodynamic parameters, and a cuffed polyethylene catheter with a cuff (PE-50, Becton Dickinson, Parsippany, USA) was fixed on its bladder dome with purse-string suture. In addition, a polyethylene catheter (PE-10, Becton Dickinson, Parsippany, USA) with a balloon for measuring abdominal pressure was fixed on the bladder, and another polyethylene catheter (PE-10, Becton Dickinson, Parsippany, USA) was fixed following being inserted in the gastrointestinal tract. The above catheters were passed through beneath skin, and then fixed on dorsal skin, the ends of which were closed by applying heat. An un-anesthetized rat being free was placed in a metabolic cage at 3 days after inserting a bladder tube and a vessel for measuring an abdominal pressure. The tube on the back of its neck was coupled to a microinjection pump (PHD22/2000 pump; Harvard Apparatus) and a pressure transducer (Research Grade Blood Pressure Transducer; Harvard Apparatus, Holliston, USA) with a T-tube, and then intravesical pressures were measured, with injecting the physiological saline solution at room temperate at a speed of 10 ml/hour. It is to measure intravesical pressures in the rat using a principle that when a predetermined volume of physiological saline solution is filled in the bladder, it is contracted to urinate. The abdominal pressure was measured by coupling the vessel for measuring abdominal pressure to the other pressure transducer. Also, to measure a voiding volume being an indicator of volume parameter, the voiding volume was measured from a urine amount collected in a urine collector cup (fluid collector) coupled to a force displacement transducer (Research Grade Isometric Transducer; Harvard Apparatus).
Beginning to measure urodynamic parameters before administration of the extracts of Piper Longum L. and tolterodine, records of 3 to 5 stabilized micturition cycles were obtained. Then, the Piper Longum L. extracts and tolterodine were orally administered after decoupling the catheter. The catheters were again coupled thereto 20 minutes after oral administration of drugs, and voiding cycles and urodynamic study were carried out by having the rat to urinate 3 to 5 times. The average values of each parameter were measured by selecting the most representative 3 continuous cycles from voiding cycles measured before and after administration of drug.
In 3 repeated voiding cycles, a basal pressure (BP), which is an parameter of intravesical pressure, is the lowest pressure in cystometry, a threshold pressure (TP) is a pressure immediately before micturition contraction, and a micturition pressure (MP) means the maximum bladder pressure represented on voiding. […]

[4] = After Dosing, water extract 300 mg/kg, tolterodine 1 mg/kg
[5] = after vs before dosing, increase

## CCN(CC)CC#CCOC(=O)C(O)(c1ccccc1)C1CCCCC1 (stereo not drawn) [Oxybutynin, oxybutynin]
[1]
  MI (micturition interval): 248.50 ± 144.43 s
  VV (voiding volume): 0.24 ± 0.15 mL
[2]
  BC (bladder capacity): 0.46 ± 0.14 mL
  BP (basal pressure): 9.7 ± 3.1 cm H2O
  MI (micturition interval): 221.54 ± 75.20 s
  MP (micturition pressure): 29.2 ± 7.9 cm H2O
  RV (residual volume): 0.30 ± 0.13 mL
  TP (threshold pressure): 17.6 ± 4.3 cm H2O
  VV (voiding volume): 0.16 ± 0.08 mL
Muscarinic M2 receptor
  cAMP: 28.21 pmol/mL
  cAMP, % of forskolin: 91.39%

## Cc1ccc(O)c([C@H](CCN(C(C)C)C(C)C)c2ccccc2)c1 [Tolterodine, tolterodine]
[3]; [4]
  BC (bladder capacity): 0.41 ± 0.03 mL
  BP (basal pressure): 4.8 ± 1.1 cmH2O
  MI (micturition interval): 365.4 ± 31.8 s
  MP (micturition pressure): 50.5 ± 1.7 cmH2O
  RV (residual volume): 0 ± 0 mL
  TP (threshold pressure): 18.1 ± 1.7 cmH2O
  VV (voiding volume): 0.41 ± 0.03 mL
[3]; [5]
  BC, Percentage Change (%): 36.7% ↑
  MI, Percentage Change (%): 46.4% ↑
  VV, Percentage Change (%): 36.7% ↑
